Reference: the Kinase Knowledgebase extract (Sharma et al. 2016)

molecular target: PIK3CA (human) (UniProt P42336); assay: Assessment of PIK3CA Kinase Activity
Sequence (P42336 whole entry, looked up): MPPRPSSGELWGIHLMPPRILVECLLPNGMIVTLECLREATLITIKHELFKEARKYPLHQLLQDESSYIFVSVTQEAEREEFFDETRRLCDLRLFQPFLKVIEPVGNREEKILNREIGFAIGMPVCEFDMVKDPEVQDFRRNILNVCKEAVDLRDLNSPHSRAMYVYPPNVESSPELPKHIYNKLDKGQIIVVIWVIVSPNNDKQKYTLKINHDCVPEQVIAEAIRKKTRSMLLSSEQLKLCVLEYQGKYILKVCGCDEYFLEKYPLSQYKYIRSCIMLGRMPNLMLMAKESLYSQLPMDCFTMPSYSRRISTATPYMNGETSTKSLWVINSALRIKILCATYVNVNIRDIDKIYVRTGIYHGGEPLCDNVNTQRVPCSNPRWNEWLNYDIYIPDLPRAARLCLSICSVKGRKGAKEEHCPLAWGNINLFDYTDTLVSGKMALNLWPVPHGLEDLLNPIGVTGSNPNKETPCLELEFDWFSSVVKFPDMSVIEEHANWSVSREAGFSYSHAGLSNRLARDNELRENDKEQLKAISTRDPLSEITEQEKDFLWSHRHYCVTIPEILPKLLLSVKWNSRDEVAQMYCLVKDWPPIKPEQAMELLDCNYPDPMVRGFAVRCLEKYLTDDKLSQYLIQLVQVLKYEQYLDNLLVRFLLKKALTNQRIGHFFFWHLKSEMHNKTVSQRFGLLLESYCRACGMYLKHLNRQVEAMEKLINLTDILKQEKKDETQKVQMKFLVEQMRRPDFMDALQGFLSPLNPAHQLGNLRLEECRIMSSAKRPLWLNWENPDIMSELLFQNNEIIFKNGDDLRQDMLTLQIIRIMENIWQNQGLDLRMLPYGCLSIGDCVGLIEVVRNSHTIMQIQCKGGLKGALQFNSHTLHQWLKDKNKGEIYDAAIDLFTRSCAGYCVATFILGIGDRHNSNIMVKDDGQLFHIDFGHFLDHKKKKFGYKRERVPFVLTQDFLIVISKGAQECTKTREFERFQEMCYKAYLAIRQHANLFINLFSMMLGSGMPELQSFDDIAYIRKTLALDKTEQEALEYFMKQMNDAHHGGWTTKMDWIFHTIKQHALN

IC50 [nM] | SMILES
≤ 100 | Cc1nc2cc(-c3ccc4c(c3)CN(c3nc(NC5CNC5)nc(C)c3Cc3ccc(F)cc3)CCO4)ccc2[nH]1
≤ 100 | Cc1nc2cc(-c3ccc4c(c3)CN(c3nc(NCCN(C)C)nc(C)c3Cc3ccc(F)cc3)CCO4)ccc2[nH]1
≤ 100 | COc1ccc2c(N3CCOc4ccc(-c5ccc6[nH]c(C)nc6c5)cc4C3)nc(CN(C)C)nc2c1
≤ 100 | Cc1nc2cc(-c3ccc4c(c3)CN(c3nc(CNCCF)nc(C)c3C(C)C)CCO4)ccc2[nH]1
≤ 100 | Cc1nc2cc(-c3ccc4c(c3)CN(c3nc(CN5CCCC5)nc(C)c3C(C)C)CCO4)ccc2[nH]1
100 to 500 | Cc1nc2cc(-c3ccc4c(c3)CN(c3nc(CN(C)C)nc(C)c3-c3ccccc3)CCO4)ccc2[nH]1
≤ 100 | CC(=O)NCc1nc2c(c(N3CCOc4ccc(-c5ccc6[nH]c(C)nc6c5)cc4C3)n1)CC(C)(C)CC2
100 to 500 | COc1ccc(-c2ccc3c(c2)CN(c2nc(N)nc(C)c2C(C)C)CCO3)cc1NS(C)(=O)=O
≤ 100 | COCCOc1cc(-c2ccc3c(c2)CN(c2nc(CN(C)C)nc4c2CC(C)(C)CC4)CCO3)ccc1OC
≤ 100 | Cc1nc2cc(-c3ccc4c(c3)CN(c3nc(CN(C)C)nc(C)c3CCCF)CCO4)ccc2[nH]1
100 to 500 | Cc1nc2cc(-c3ccc4c(c3)CN(c3nc(CN(C)C)nc(C)c3CC(C)C)CCO4)ccc2[nH]1
≤ 100 | Cc1nc2cc(-c3ccc4c(c3)CN(c3nc(N)nc5c3CC(C)(C)CC5)CCO4)ccc2[nH]1
≤ 100 | Cc1nc2cc(-c3ccc4c(c3)CN(c3cc(N)ncc3C#N)CCO4)ccc2[nH]1
≤ 100 | Cc1nc(N)nc(N2CCOc3ccc(-c4cnc5[nH]cnc5c4)cc3C2)c1C(C)C
≤ 100 | COC(=O)Nc1nc2cc(-c3ccc4c(c3)CN(c3nc(N)nc(C)c3C(C)C)CCO4)ccc2[nH]1
≤ 100 | Cc1nc2cc(-c3ccc4c(c3)CN(c3nc(C(C)N)nc5c3CC(C)(C)CC5)CCO4)ccc2[nH]1 (stereo not given)
≤ 100 | CC1(C)CCc2nc(N)nc(N3CCOc4ccc(-c5ccc6[nH]cnc6c5)cc4C3)c2C1
≤ 100 | Cc1nc2cc(-c3ccc4c(c3)CN(c3nc(N)nc(C)c3Cc3ccc(F)cc3)CCO4)ccc2[nH]1
≤ 100 | COc1ccc(-c2ccc3c(c2)CN(c2nc(CN(C)C)nc(C)c2C(C)C)CCO3)cc1NS(C)(=O)=O
≤ 100 | COc1ccc2c(N3CCOc4ccc(-c5cnc6[nH]cnc6c5)cc4C3)nc(CN(C)C)nc2c1
≤ 100 | C=CCc1c(C)nc(N)nc1N1CCOc2ccc(-c3ccc4nc(C)[nH]c4c3)cc2C1
≤ 100 | COc1ccc(-c2ccc3c(c2)CN(c2nc(CN(C)C)nc4c2CC(C)(C)CC4)CCO3)cc1S(C)(=O)=O
≤ 100 | CCCc1c(C)nc(CN(C)C)nc1N1CCOc2ccc(-c3ccc4nc(C)[nH]c4c3)cc2C1
100 to 500 | Cc1nc2cc(-c3ccc4c(c3)CN(c3nc(NCCCN(C)C)nc(C)c3Cc3ccc(F)cc3)CCO4)ccc2[nH]1
≤ 100 | Cc1nc2ncc(-c3ccc4c(c3)CN(c3nc(N)nc5c3CC(C)(C)CC5)CCO4)cc2[nH]1

IC50 [nM] | SMILES
≤ 100 | CCNc1nc2cc(-c3ccc4c(c3)CN(c3nc(N)nc(C)c3C(C)C)CCO4)ccc2[nH]1
≤ 100 | CC(=O)OCc1nc(C)c(C(C)C)c(N2CCOc3ccc(-c4ccc5nc(C)[nH]c5c4)cc3C2)n1
≤ 100 | COc1ccc(-c2ccc3c(c2)CN(c2nc(CN(C)C)nc4c2CC(C)(C)CC4)CCO3)cc1OC(F)F
≤ 100 | Cc1nc(N)nc(N2CCOc3ccc(-c4ccc5[nH]cnc5c4)cc3C2)c1C(C)C
≤ 100 | Cc1nc2cc(-c3ccc4c(c3)CN(c3nc(N)nc(C)c3C(C)C)CCO4)cnc2[nH]1
100 to 500 | CCNc1nc(C)c(Cc2ccc(F)cc2)c(N2CCOc3ccc(-c4ccc5[nH]c(C)nc5c4)cc3C2)n1
≤ 100 | COC(=O)Cc1c(C)nc(CN(C)C)nc1N1CCOc2ccc(-c3ccc4nc(C)[nH]c4c3)cc2C1
≤ 100 | COc1ccc2c(N3CCOc4ccc(-c5ccc6[nH]cnc6c5)cc4C3)nc(CN(C)C)nc2c1
≤ 100 | Cc1nc2ccc(-c3cc(F)c4c(c3)CN(c3nc(N)nc(C)c3C(C)C)CCO4)cc2[nH]1
≤ 100 | Cc1nc(N)nc(N2CCOc3ccc(-c4cnc5[nH]cnc5c4)cc3C2)c1Cc1ccc(F)cc1
≤ 100 | Cc1nc2cc(-c3ccc4c(c3)CN(c3nc(CF)nc5c3CC(C)(C)CC5)CCO4)ccc2[nH]1
≤ 100 | Cc1nc(N)nc(N2CCOc3ccc(-c4ccc5[nH]cnc5c4)cc3C2)c1Cc1ccc(F)cc1
≤ 100 | COCCc1c(C)nc(CN(C)C)nc1N1CCOc2ccc(-c3ccc4nc(C)[nH]c4c3)cc2C1
≤ 100 | Cc1nc2cc(-c3ccc4c(c3)CN(c3nc(N)nc(C)c3C(C)C)CCO4)ccc2[nH]1
≤ 100 | C=CCc1c(C)nc(CN(C)C)nc1N1CCOc2ccc(-c3ccc4nc(C)[nH]c4c3)cc2C1
≤ 100 | Cc1nc2ccc(-c3ccc4c(c3)CN(c3nc(CN(C)C)nc(C)c3C)CCO4)cc2[nH]1
100 to 500 | Cc1nc2cc(-c3ccc4c(c3)CN(c3nc(CN(C)C)nc(C)c3Cl)CCO4)ccc2[nH]1
≤ 100 | Cc1nc2cc(-c3ccc4c(c3)CN(c3nc(CN(C)C)nc(C)c3Br)CCO4)ccc2[nH]1
≤ 100 | Cc1nc(N)nc(N2CCOc3ccc(-c4cnc5[nH]c(N)nc5c4)cc3C2)c1C(C)C
≤ 100 | CC1(C)CCc2nc(N)nc(N3CCOc4ccc(-c5cnc6[nH]cnc6c5)cc4C3)c2C1
100 to 500 | COc1ccc(-c2ccc3c(c2)CN(c2nc(CN(C)C)nc4c2CC(C)(C)CC4)CCO3)cc1C(C)=O
≤ 100 | Cc1nc2cc(-c3ccc4c(c3)CN(c3nc(NC5CNC5)nc(C)c3C(C)C)CCO4)ccc2[nH]1
≤ 100 | Cc1nc2cc(-c3ccc4c(c3)CN(c3nc(N)nc(C)c3Cc3ccc(F)cc3)CCO4)cnc2[nH]1
≤ 100 | Cc1nc2ccc(-c3ccc4c(c3)CN(c3nc(CO)nc(C)c3C(C)C)CCO4)cc2[nH]1
≤ 100 | CCN(CC)Cc1nc(C)c(C(C)C)c(N2CCOc3ccc(-c4ccc5nc(C)[nH]c5c4)cc3C2)n1
